Laboratory results: ChEMBL document CHEMBL1201862, “PubChem BioAssay data set” (2004)
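Interpolation was linear, between the two tested concentrations surrounding the appropriate level; five concentrations were tested over 48 hours in 96-well plates. The concentration for 50% growth inhibition is given as GI50.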 Active and inactive are the calls of the source. Rule as the data show it: active = GI50 up to about 1.1 µM and inactive = higher.

Key:
Experiment in all cases: NCI anticancer screen, dose series, 48 h
M14 = test system: M14
SK-MEL-2 = test system: SK-MEL-2
A549 = test system: A549
MCF7 = test system: MCF7
HCT-15 = test system: HCT-15
RXF 393 = test system: RXF 393
U-251 = test system: U-251
KM12 = test system: KM12
HOP-62 = test system: HOP-62
K562 = test system: K562
MDA-MB-435 = test system: MDA-MB-435
SK-MEL-5 = test system: SK-MEL-5
SK-OV-3 = test system: SK-OV-3
SF-268 = test system: SF-268
SF-539 = test system: SF-539
786-0 = test system: 786-0
MOLT-4 = test system: MOLT-4
RPMI-8226 = test system: RPMI-8226
NCI-H460 = test system: NCI-H460
Hs-578T = test system: Hs-578T

| SMILES | GI50 (M14) | GI50 (SK-MEL-2) | GI50 (A549) | GI50 (MCF7) | GI50 (HCT-15) | GI50 (RXF 393) | GI50 (U-251) | GI50 (KM12) | GI50 (HOP-62) | GI50 (K562) | GI50 (MDA-MB-435) | GI50 (SK-MEL-5) | GI50 (SK-OV-3) | GI50 (SF-268) | GI50 (SF-539) | GI50 (786-0) | GI50 (MOLT-4) | GI50 (RPMI-8226) | GI50 (NCI-H460) | GI50 (Hs-578T) |
| --- | --- | --- | --- | --- | --- | --- | --- | --- | --- | --- | --- | --- | --- | --- | --- | --- | --- | --- | --- | --- |
| CN(C)S(=O)(=O)n1ccnc1 | > 100 µM (inactive) | > 100 µM (inactive) | > 100 µM (inactive) | > 100 µM (inactive) | > 100 µM | > 100 µM (inactive) | > 100 µM (inactive) | > 100 µM (inactive) | > 100 µM (inactive) | > 100 µM (inactive) | > 100 µM (inactive) | > 100 µM (inactive) | > 100 µM (inactive) | > 100 µM (inactive) | > 100 µM (inactive) | > 100 µM (inactive) | > 100 µM (inactive) | > 100 µM (inactive) | > 100 µM (inactive) | – |
| CC1(C=O)C(=O)CCC2(C)C3CC(=O)OC3CCC12 (stereo not given) | > 100 µM (inactive) | > 100 µM (inactive) | > 100 µM (inactive) | – | > 100 µM | > 100 µM (inactive) | > 100 µM (inactive) | > 100 µM (inactive) | > 100 µM (inactive) | > 100 µM (inactive) | – | > 100 µM (inactive) | > 100 µM (inactive) | > 100 µM (inactive) | > 100 µM (inactive) | > 100 µM (inactive) | > 100 µM (inactive) | > 100 µM (inactive) | > 100 µM (inactive) | – |
| Clc1ccccc1CN1COc2c(ccc3cccnc23)C1 | 2.59 µM (inactive) | 1.72 µM (inactive) | 3.75 µM (inactive) | – | 2.06 µM | 3.4 µM (inactive) | 5.6 µM (inactive) | 3.98 µM (inactive) | 2.69 µM (inactive) | 2.12 µM (inactive) | – | 2.77 µM (inactive) | 8.05 µM (inactive) | 3.65 µM (inactive) | 3.59 µM (inactive) | 4.28 µM (inactive) | 2.22 µM (inactive) | 2.73 µM (inactive) | 5.19 µM (inactive) | – |
| CCCCOc1c(C(=O)O)cc(Br)cc1C(=O)O | > 100 µM (inactive) | > 100 µM (inactive) | > 100 µM (inactive) | > 100 µM (inactive) | > 100 µM | > 100 µM (inactive) | > 100 µM (inactive) | > 100 µM (inactive) | > 100 µM (inactive) | > 100 µM (inactive) | > 100 µM (inactive) | > 100 µM (inactive) | > 100 µM (inactive) | > 100 µM (inactive) | > 100 µM (inactive) | > 100 µM (inactive) | > 100 µM (inactive) | > 100 µM (inactive) | > 100 µM (inactive) | – |
| COC(=O)c1ccc(NC(=O)c2cc3c(cc2Br)OCO3)o1 | > 100 µM (inactive) | > 100 µM (inactive) | > 100 µM (inactive) | > 100 µM (inactive) | 94 µM | – | > 100 µM (inactive) | > 100 µM (inactive) | > 100 µM (inactive) | 63.2 µM (inactive) | 32.7 µM (inactive) | > 100 µM (inactive) | > 100 µM (inactive) | 0.471 µM (active) | > 100 µM (inactive) | > 100 µM (inactive) | 95.7 µM (inactive) | > 100 µM (inactive) | – | – |
| COC(=O)C1C(=O)CC2CCCCC21 (stereo not given) | > 100 µM (inactive) | > 100 µM (inactive) | > 100 µM (inactive) | – | > 100 µM | > 100 µM (inactive) | > 100 µM (inactive) | > 100 µM (inactive) | > 100 µM (inactive) | > 100 µM (inactive) | – | > 100 µM (inactive) | > 100 µM (inactive) | > 100 µM (inactive) | > 100 µM (inactive) | > 100 µM (inactive) | > 100 µM (inactive) | > 100 µM (inactive) | > 100 µM (inactive) | – |
| CCOP1(=O)C=C(C)C(Cl)=C(C)C1 (stereo not given) | 17.1 µM (inactive) | 8.91 µM (inactive) | 21.1 µM (inactive) | – | 23.3 µM | 29.7 µM (inactive) | 24.3 µM (inactive) | 15.8 µM (inactive) | > 100 µM (inactive) | 23.4 µM (inactive) | – | 23.1 µM (inactive) | 60.3 µM (inactive) | 38.9 µM (inactive) | 23.1 µM (inactive) | 28.3 µM (inactive) | 20.4 µM (inactive) | 18.9 µM (inactive) | 39.2 µM (inactive) | – |
| Cc1ccccc1NC(=O)C1C(=O)N(c2ccccc2C)C(=O)/C1=N\N (stereo not given) | > 100 µM (inactive) | > 100 µM (inactive) | > 100 µM (inactive) | – | > 100 µM | > 100 µM (inactive) | > 100 µM (inactive) | > 100 µM (inactive) | > 100 µM (inactive) | > 100 µM (inactive) | – | > 100 µM (inactive) | > 100 µM (inactive) | > 100 µM (inactive) | > 100 µM (inactive) | > 100 µM (inactive) | > 100 µM (inactive) | > 100 µM (inactive) | > 100 µM (inactive) | – |
| O=C1/C(=C\c2cccc(Oc3ccccc3)c2)S(=O)(=O)C(c2ccccc2)N1c1ccccc1Cl (stereo not given) | 28.6 µM (inactive) | 26 µM (inactive) | 31.6 µM (inactive) | 21.9 µM (inactive) | 31.2 µM | 29 µM (inactive) | 27.9 µM (inactive) | 27 µM (inactive) | 26.4 µM (inactive) | 14.5 µM (inactive) | 27.7 µM (inactive) | 17.4 µM (inactive) | 34.2 µM (inactive) | – | 5.83 µM (inactive) | 29.3 µM (inactive) | 15.1 µM (inactive) | 16.3 µM (inactive) | 32.6 µM (inactive) | – |
| COc1cccc(CN(C(=O)/C=C\Sc2ccccc2)C(C)(C)C)c1 | 84.7 µM (inactive) | 54.8 µM (inactive) | 43.8 µM (inactive) | 81.3 µM (inactive) | 44.6 µM | – | > 100 µM (inactive) | > 100 µM (inactive) | > 100 µM (inactive) | – | 86.5 µM (inactive) | 49 µM (inactive) | > 100 µM (inactive) | – | > 100 µM (inactive) | > 100 µM (inactive) | 18.1 µM (inactive) | – | – | – |
| CCOC(=O)N1C(=S)C(C(=O)OC)(C(=O)OC)N=C1C | > 100 µM (inactive) | > 100 µM (inactive) | > 100 µM (inactive) | > 100 µM (inactive) | > 100 µM | > 100 µM (inactive) | > 100 µM (inactive) | > 100 µM (inactive) | > 100 µM (inactive) | > 100 µM (inactive) | > 100 µM (inactive) | > 100 µM (inactive) | > 100 µM (inactive) | – | – | > 100 µM (inactive) | > 100 µM (inactive) | > 100 µM (inactive) | > 100 µM (inactive) | – |
| Cc1c(C)c2ccc(OCC(O)COC(C)C)c(C)c2oc1=O (stereo not given) | 20.8 µM (inactive) | 20.1 µM (inactive) | 34.7 µM (inactive) | 24.4 µM (inactive) | – | – | 16.2 µM (inactive) | 56.1 µM (inactive) | 28.7 µM (inactive) | 25.4 µM (inactive) | – | 16.4 µM (inactive) | > 100 µM (inactive) | > 100 µM (inactive) | – | > 10 µM (inactive) | > 10 µM (inactive) | 21.4 µM (inactive) | 16.7 µM (inactive) | 31.7 µM (inactive) |
| CC1=C(C(=O)Nc2ccccc2C)C(c2ccc(C3C(C(=O)Nc4ccccc4C)=CNC=C3C(=O)Nc3ccccc3C)cc2)C(C(=O)Nc2ccccc2C)=C(C)N1 | 16.8 µM (inactive) | 15.7 µM (inactive) | 40.6 µM (inactive) | – | 16.8 µM | 47.2 µM (inactive) | 12.2 µM (inactive) | 14.1 µM (inactive) | 25.4 µM (inactive) | 9.27 µM (inactive) | – | 12.9 µM (inactive) | 27.3 µM (inactive) | 11.4 µM (inactive) | 14.4 µM (inactive) | 15.1 µM (inactive) | 4.5 µM (inactive) | 15.8 µM (inactive) | 21.4 µM (inactive) | – |
| Cc1ccc(SCC(=O)C2=C(O)CCCC2=O)cc1 | > 100 µM (inactive) | > 100 µM (inactive) | > 100 µM (inactive) | – | > 100 µM | > 100 µM (inactive) | > 100 µM (inactive) | > 100 µM (inactive) | > 100 µM (inactive) | > 100 µM (inactive) | – | > 100 µM (inactive) | > 100 µM (inactive) | > 100 µM (inactive) | > 100 µM (inactive) | > 100 µM (inactive) | > 100 µM (inactive) | > 100 µM (inactive) | > 100 µM (inactive) | – |
| CC(=O)O[C@H]1CSC[C@@H](OC(C)=O)C1[N+](=O)[O-] (stereo not given in full) | 29.6 µM (inactive) | 27.3 µM (inactive) | > 100 µM (inactive) | – | 30.1 µM | 20.1 µM (inactive) | > 100 µM (inactive) | 63 µM (inactive) | > 100 µM (inactive) | 26.4 µM (inactive) | – | 47.8 µM (inactive) | > 100 µM (inactive) | > 100 µM (inactive) | 43.8 µM (inactive) | 19.2 µM (inactive) | 27.8 µM (inactive) | 22.5 µM (inactive) | > 100 µM (inactive) | – |
| O=C1/C(=C/c2ccc(Br)cc2)CCC/C1=C\c1ccc(Br)cc1 | 3.03 µM (inactive) | 20.9 µM (inactive) | 12.4 µM (inactive) | – | 5.13 µM | 5.14 µM (inactive) | 7.05 µM (inactive) | 3.4 µM (inactive) | 20 µM (inactive) | 4.31 µM (inactive) | – | 13.9 µM (inactive) | 56.8 µM (inactive) | 17.2 µM (inactive) | 16 µM (inactive) | 11.9 µM (inactive) | 7.11 µM (inactive) | 2.04 µM (inactive) | 10.5 µM (inactive) | – |
| CCC1(c2ccncc2)CCC(=O)NC1=O (stereo not given) [ROGLETIMIDE] | > 100 µM (inactive) | > 100 µM (inactive) | > 100 µM (inactive) | – | > 100 µM | > 100 µM (inactive) | > 100 µM (inactive) | > 100 µM (inactive) | > 100 µM (inactive) | > 100 µM (inactive) | – | > 100 µM (inactive) | > 100 µM (inactive) | > 100 µM (inactive) | > 100 µM (inactive) | > 100 µM (inactive) | > 100 µM (inactive) | > 100 µM (inactive) | > 100 µM (inactive) | – |
